Results from ChEMBL document CHEMBL5523738, “Lipid Trolling to Optimize A3 Adenosine Receptor-Positive Allosteric Modulators (PAMs)” (J Med Chem, 2024).
Activity calls are given as the source filed them. The rule behind the calls is not given here.

Columns and labels:
[1] = molecular target: T1, Adenosine receptor A3 (Mus musculus) (UniProt Q61618); test: Positive allosteric modulation of full length mouse A3 adenosine receptor transfected in HEK293 cell membranes assessed as slow down of [125I]I-AB-MECA dissociation rate at 10 uM preincubated with radioligand for 3 hrs followed by NECA and compound addition and measured upto 180 mins by gamma counter method; settings: Membrane, filed as positive allosteric modulator
T1 sequence (whole entry): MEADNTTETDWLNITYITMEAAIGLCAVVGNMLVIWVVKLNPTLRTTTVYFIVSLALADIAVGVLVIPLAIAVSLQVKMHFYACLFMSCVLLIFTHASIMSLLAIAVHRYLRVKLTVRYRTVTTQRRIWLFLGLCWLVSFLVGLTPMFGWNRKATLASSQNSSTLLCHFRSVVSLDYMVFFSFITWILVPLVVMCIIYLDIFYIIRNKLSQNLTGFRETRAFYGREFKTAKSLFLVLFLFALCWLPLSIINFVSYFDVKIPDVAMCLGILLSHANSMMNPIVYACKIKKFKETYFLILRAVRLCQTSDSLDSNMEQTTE

[2] = molecular target: T1, Adenosine receptor A3 (Mus musculus); test: Orthosteric antagonist activity at full length mouse A3 adenosine receptor transfected in HEK293 cell membranes assessed as inhibition of [125I]I-AB-MECA binding at equilibrium at 10 uM by gamma counter method; settings: Membrane, filed as antagonist
[3] = molecular target: T2, Adenosine receptor A3 (Homo sapiens) (UniProt P0DMS8); test: Positive allosteric modulation of human A3 adenosine receptor transfected in HEK293 cell membranes assessed as slow down of [125I]I-AB-MECA dissociation rate at 10 uM preincubated with radioligand for 3 hrs followed by NECA and compound addition and measured after 60 mins by gamma counter method; settings: Membrane, filed as positive allosteric modulator
T2 sequence (whole entry): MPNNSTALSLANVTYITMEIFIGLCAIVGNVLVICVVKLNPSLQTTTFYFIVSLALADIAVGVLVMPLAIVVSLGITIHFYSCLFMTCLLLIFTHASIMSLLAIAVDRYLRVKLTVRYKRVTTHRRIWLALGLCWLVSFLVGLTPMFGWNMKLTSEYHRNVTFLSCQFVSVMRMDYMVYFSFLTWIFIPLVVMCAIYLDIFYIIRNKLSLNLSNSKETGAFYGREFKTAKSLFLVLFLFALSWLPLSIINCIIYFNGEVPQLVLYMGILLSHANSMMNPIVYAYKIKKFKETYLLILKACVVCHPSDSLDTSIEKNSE

[4] = molecular target: T2, Adenosine receptor A3 (Homo sapiens); test: Orthosteric antagonist activity at human A3 adenosine receptor transfected in HEK293 cell membranes assessed as inhibition of [125I]I-AB-MECA binding at equilibrium at 10 uM measured for 18 hrs by gamma counter method; settings: Membrane, filed as antagonist
[5] = molecular target: T2, Adenosine receptor A3 (Homo sapiens); test: Positive allosteric modulation of human A3 adenosine receptor transfected in HEK293 cell membranes assessed as potentiation of 5-(2-chloro-6-((3-iodobenzyl)amino)-9H-purin-9-yl)-3,4-dihydroxy-N-methyltetrahydrofuran-2-carboxamide induced [35S]GTP-gammaS binding by measuring fold increase in agonist …; settings: Membrane, filed as positive allosteric modulator, dose 1.0 µM, time 3.0 hrs

SMILES | Activity [1] | Activity [3] | Activity [4] | fold change (FC) [5] | other results
CCCC(CCC)c1nc2c(Nc3ccc(C#CCCCCN)cc3)nc3ccccc3c2[nH]1 | Active |  |  |  | Activity [2]: Active
Clc1ccc(Oc2nc3ccccc3c3[nH]c(C4CCCCC4)nc23)cc1Cl |  | Active | Active |  | 
Clc1ccc(Sc2nc3ccccc3c3[nH]c(C4CCCCC4)nc23)cc1Cl |  | Active | Active |  | 
CN(c1ccc(Cl)c(Cl)c1)c1nc2ccccc2c2[nH]c(C3CCCCC3)nc12 |  | Active |  |  | 
CCCC(CCC)c1nc2c(Nc3ccc(I)cc3)nc3ccccc3c2n1Cc1ccccc1 |  |  | Active | 2.5 | 
CCCC(CCC)c1nc2c(Nc3ccc(C#CCCCCCCCCN(C)C)cc3)nc3ccccc3c2[nH]1 |  |  |  | 4 | 
CCCC(CCC)c1nc2c(Nc3cccc(C#CCCCCCCCCN)c3)nc3ccccc3c2[nH]1 | Active |  |  |  | 
CCCC(CCC)c1nc2c(Oc3ccc(Cl)c(Cl)c3)nc3ccccc3c2[nH]1 |  | Active | Active |  | 
CCCC(CCC)c1nc2c(Nc3ccc(C#CCN)cc3)nc3ccccc3c2[nH]1 | Active |  |  |  | 
CCCC(CCC)c1nc2c(Nc3ccc(C#CCCCCCCCCCN4CCCCC4)cc3)nc3ccccc3c2[nH]1 |  |  |  | 4 | 
CCCC(CCC)c1nc2c(Nc3ccc(C#CCCCCCCN)cc3)nc3ccccc3c2[nH]1 | Active |  |  |  | Activity [2]: Active
CCCC(CCC)c1nc2c(Nc3ccc(/C=C/C(=O)NCCCCCCCCN)cc3)nc3ccccc3c2[nH]1 |  | Active | Active |  | 
CCCC(CCC)c1nc2c(Nc3ccc(I)cc3)nc3ccccc3c2[nH]1 | Active |  |  |  | 
CCCC(CCC)c1nc2c(Nc3ccc(/C=C/CCCCCCCCN)cc3)nc3ccccc3c2[nH]1 |  |  |  | 2.5 | 
CCCC(CCC)c1nc2c([nH]1)c(Nc1ccc(C#CCCCCCCCCCCN)cc1)nc1ccccc12 | Active |  |  | 2.5 | Activity [2]: Active
